The test system of the assay is BDF1 mice, M5076 sarcoma s.c., survival/tumor T/C. The assay is described as follows: NCI In Vivo Anticancer Drug Screen. Data for tumor model Sarcoma M5076 (subcutaneous) in B6D2F1 (BDF1) mice. On the procedure: The antitumor activity of compounds was measured in mice bearing transplantable tumors. Survival or tumor size were measured and the results are expressed as the measurement made in the treated group (T) divided by the measurement made in the vehicle treated control group (C). The tumor model used in this assay is Sarcoma M5076 (subcutaneous) in B6D2F1 (BDF1) mice

Setting [1] is: endpoint: median survival time, dose: 50.0 mg/kg/injection, schedule: Q01DX009 (ip), vehicle: saline with Tween-80, higher = longer survival.
[2] abbreviates: endpoint: median survival time, dose: 100.0 mg/kg/injection, schedule: Q01DX009 (ip), vehicle: saline with Tween-80, higher = longer survival.
The mark [3] stands for this setting: endpoint: median survival time, dose: 200.0 mg/kg/injection, schedule: Q01DX009 (ip), vehicle: saline with Tween-80, higher = longer survival.
The mark [4] stands for this setting: endpoint: median tumor weight (est.), dose: 50.0 mg/kg/injection, schedule: Q01DX009 (ip), vehicle: saline with Tween-80, higher = larger tumour.
Where [5] appears, read: endpoint: median tumor weight (est.), dose: 100.0 mg/kg/injection, schedule: Q01DX009 (ip), vehicle: saline with Tween-80, higher = larger tumour.
The mark [6] stands for this setting: endpoint: median tumor weight (est.), dose: 200.0 mg/kg/injection, schedule: Q01DX009 (ip), vehicle: saline with Tween-80, higher = larger tumour.

This is an account of results in PubChem BioAssay AID288 (DTP/NCI, 2004).

Values joined by “and” are separate entries in the source; they are usually repeats but may differ in a detail not shown here. Equal entries are not always repeated. Results filed as inconclusive are left out.

Regarding `OC(CBr)C(O)C(O)C(O)CBr` (configuration not stated), the T/C runs as follows: (endpoint: mean tumor weight, dose: 37.5 mg/kg/injection, schedule: Q02DX011 (ip), vehicle: Klucel (hydroxypropylcellulose) (HPC), higher = larger tumour) 66 % of control; (endpoint: mean tumor weight, dose: 75.0 mg/kg/injection, schedule: Q02DX011 (ip), vehicle: Klucel (hydroxypropylcellulose) (HPC), higher = larger tumour) 63 % of control; (endpoint: mean tumor weight, dose: 150.0 mg/kg/injection, schedule: Q02DX011 (ip), vehicle: Klucel (hydroxypropylcellulose) (HPC), higher = larger tumour) 52 % of control; (endpoint: median survival time, dose: 30.0 mg/kg/injection, schedule: Q04DX009 (ip), vehicle: saline with Tween-80, higher = longer survival) 108 % of control; (endpoint: median survival time, dose: 60.0 mg/kg/injection, schedule: Q02DX033 (ip), vehicle: saline with Tween-80, higher = longer survival) 112 % of control; (endpoint: median survival time, dose: 60.0 mg/kg/injection, schedule: Q04DX009 (ip), vehicle: saline with Tween-80, higher = longer survival) 108 % of control. For the same molecule, the T/C (endpoint: median survival time, dose: 120.0 mg/kg/injection, schedule: Q02DX033 (ip), vehicle: saline with Tween-80, higher = longer survival) is 158 % of control; the T/C (endpoint: median survival time, dose: 120.0 mg/kg/injection, schedule: Q04DX009 (ip), vehicle: saline with Tween-80, higher = longer survival) was 112 % of control; the T/C (endpoint: median tumor weight (est.), dose: 37.5 mg/kg/injection, schedule: Q02DX011 (ip), vehicle: Klucel (hydroxypropylcellulose) (HPC), higher = larger tumour) was 75 % of control; the T/C (endpoint: median tumor weight (est.), dose: 75.0 mg/kg/injection, schedule: Q02DX011 (ip), vehicle: Klucel (hydroxypropylcellulose) (HPC), higher = larger tumour) is 90 % of control; the T/C (endpoint: median tumor weight (est.), dose: 150.0 mg/kg/injection, schedule: Q02DX011 (ip), vehicle: Klucel (hydroxypropylcellulose) (HPC), higher = larger tumour) was 72 % of control.

With `CS(=O)(=O)c1ncc(Br)cn1`, the T/C by setting is: (endpoint: median survival time, dose: 25.0 mg/kg/injection, schedule: Q04DX003 (ip), vehicle: saline with Tween-80, higher = longer survival) 100 % of control; (endpoint: median survival time, dose: 50.0 mg/kg/injection, schedule: Q04DX003 (ip), vehicle: saline with Tween-80, higher = longer survival) 84 % of control; (endpoint: median survival time, dose: 100.0 mg/kg/injection, schedule: Q04DX003 (ip), vehicle: saline with Tween-80, higher = longer survival) 99 % of control; (endpoint: median survival time, dose: 200.0 mg/kg/injection, schedule: Q04DX003 (ip), vehicle: saline with Tween-80, higher = longer survival) 91 % of control.

Take `CSC1SCC2C(=O)N(C)C(C(C)C)C(=O)OCC(NC(=O)c3cnc4ccccc4n3)C(=O)NC(C)C(=O)N(C)C1C(=O)N(C)C(C(C)C)C(=O)OCC(NC(=O)c1cnc3ccccc3n1)C(=O)NC(C)C(=O)N2C` (configuration not stated): the T/C is, setting by setting: (endpoint: median survival time, dose: 0.06 mg/kg/injection, schedule: Q04DX003 (ip), vehicle: saline with Tween-80, higher = longer survival) 96 % of control; (endpoint: median survival time, dose: 0.12 mg/kg/injection, schedule: Q04DX003 (ip), vehicle: saline with Tween-80, higher = longer survival) 91 % of control.

In the case of `O=C1c2c(O)ccc(O)c2C(=O)c2c(NCCNCCO)ccc(NCCNCCO)c21`, the T/C (endpoint: median tumor weight (est.), dose: 0.25 mg/kg/injection, schedule: Q02DX011 (ip), vehicle: water, higher = larger tumour) was 97 % of control; the T/C (endpoint: median tumor weight (est.), dose: 1.0 mg/kg/injection, schedule: Q02DX011 (ip), vehicle: water, higher = larger tumour) is 31 % of control and 38 % of control; the T/C (endpoint: median tumor weight (est.), dose: 2.0 mg/kg/injection, schedule: Q02DX011 (ip), vehicle: water, higher = larger tumour) is 4 % of control.

For the molecule `CN(C)CCCNc1c2ccccc2nc2cccc([N+](=O)[O-])c12`, the T/C runs as follows: (endpoint: mean tumor weight, dose: 2.0 micrograms/kg/injection, schedule: Q02DX011 (ip), vehicle: saline, higher = larger tumour) 106 % of control; (endpoint: mean tumor weight, dose: 4.0 micrograms/kg/injection, schedule: Q02DX011 (ip), vehicle: saline, higher = larger tumour) 70 % of control; (endpoint: mean tumor weight, dose: 8.0 micrograms/kg/injection, schedule: Q02DX011 (ip), vehicle: saline, higher = larger tumour) 97 % of control; (endpoint: mean tumor weight, dose: 16.0 micrograms/kg/injection, schedule: Q02DX011 (ip), vehicle: saline, higher = larger tumour) 92 % of control; (endpoint: mean tumor weight, dose: 32.0 micrograms/kg/injection, schedule: Q02DX011 (ip), vehicle: saline, higher = larger tumour) 88 % of control; (endpoint: mean tumor weight, dose: 64.0 micrograms/kg/injection, schedule: Q02DX011 (ip), vehicle: saline, higher = larger tumour) 65 % of control. Besides, the T/C was 112 % of control (endpoint: median tumor weight (est.), dose: 2.0 micrograms/kg/injection, schedule: Q02DX011 (ip), vehicle: saline, higher = larger tumour); 90 % of control (endpoint: median tumor weight (est.), dose: 4.0 micrograms/kg/injection, schedule: Q02DX011 (ip), vehicle: saline, higher = larger tumour); 95 % of control (endpoint: median tumor weight (est.), dose: 8.0 micrograms/kg/injection, schedule: Q02DX011 (ip), vehicle: saline, higher = larger tumour); 100 % of control (endpoint: median tumor weight (est.), dose: 32.0 micrograms/kg/injection, schedule: Q02DX011 (ip), vehicle: saline, higher = larger tumour); 62 % of control (endpoint: median tumor weight (est.), dose: 64.0 micrograms/kg/injection, schedule: Q02DX011 (ip), vehicle: saline, higher = larger tumour).

On to `COc1ccc(/C=C2\SC(=S)N(C3CC3)C2=O)cc1OC`, for which the T/C under setting [1] is 95 % of control; the T/C under setting [2] was 93 % of control; the T/C under setting [3] was 100 % of control; the T/C under setting [4] is 90 % of control; the T/C under setting [5] is 88 % of control; the T/C under setting [6] is 79 % of control.

Turning to `O=C(O)CCCc1ccc(N(CCCl)CCCl)cc1`, the T/C was 158 % of control (endpoint: median survival time, dose: 1.5 mg/kg/injection, schedule: Q02DX030 (ip), vehicle: saline with Tween-80, higher = longer survival); 194 % of control (endpoint: median survival time, dose: 3.0 mg/kg/injection, schedule: Q02DX030 (ip), vehicle: saline with Tween-80, higher = longer survival); 100 % of control (endpoint: median survival time, dose: 3.0 mg/kg/injection, schedule: Q04DX006 (ip), vehicle: saline with Tween-80, higher = longer survival); 117 % of control (endpoint: median survival time, dose: 6.0 mg/kg/injection, schedule: Q04DX006 (ip), vehicle: saline with Tween-80, higher = longer survival); 124 % of control (endpoint: median survival time, dose: 12.0 mg/kg/injection, schedule: Q04DX006 (ip), vehicle: saline with Tween-80, higher = longer survival).

For the molecule `CC1CCC(NC(=O)N(CCF)N=O)CC1` (configuration not stated), the T/C runs as follows: (endpoint: median survival time, dose: 30.0 mg/kg/injection, schedule: Q01DX003 (ip), vehicle: saline with Tween-80, higher = longer survival) 157 % of control; (endpoint: median survival time, dose: 50.0 mg/kg/injection, schedule: Q01DX001 (ip), vehicle: saline with Tween-80, higher = longer survival) 152 % of control.

In the case of `CN(Cc1cnc2nc(N)nc(N)c2n1)c1ccc(C(=O)N[C@@H](CCC(=O)O)C(=O)O)cc1`, the T/C reads like this: (endpoint: median survival time, dose: 0.5 mg/kg/injection, schedule: Q04DX006 (ip), vehicle: saline, higher = longer survival) 97 % of control; (endpoint: median survival time, dose: 1.0 mg/kg/injection, schedule: Q04DX006 (ip), vehicle: saline, higher = longer survival) 106 % of control; (endpoint: median survival time, dose: 2.0 mg/kg/injection, schedule: Q04DX006 (ip), vehicle: saline, higher = longer survival) 97 % of control; (endpoint: median survival time, dose: 4.0 mg/kg/injection, schedule: Q04DX006 (ip), vehicle: saline, higher = longer survival) 108 % of control.

On to `COc1cc(/C=N/NC(=O)COCC(=O)N/N=C/c2ccc(O)cc2OC)ccc1O`, for which the T/C runs as follows: under setting [1], 94 % of control; under setting [2], 86 % of control; under setting [3], 91 % of control; under setting [4], 116 % of control; under setting [5], 122 % of control; under setting [6], 122 % of control.

For the molecule `CN1C(=O)CN2CCc3ccccc3C2c2cc(Cl)ccc21` (configuration not stated), the T/C is 99 % of control under setting [1], 102 % of control under setting [2] and 105 % of control under setting [3].

As to `CSc1ccc(NC(=O)NNP(=S)(Oc2ccc(C(C)(C)C)cc2)Oc2ccc(C(C)(C)C)cc2)cc1`, the T/C under setting [1] is 102 % of control; the T/C under setting [2] is 107 % of control; the T/C under setting [3] was 87 % of control; the T/C under setting [4] is 92 % of control; the T/C under setting [5] is 83 % of control; the T/C under setting [6] was 92 % of control.

Regarding `C1CN(P2(N3CC3)=NP(N3CC3)(N3CC3)=NP(N3CC3)(N3CC3)=N2)CCO1` (configuration not stated), the T/C (endpoint: median survival time, dose: 6.25 mg/kg/injection, schedule: Q02DX011 (ip), vehicle: saline, higher = longer survival) is 99 % of control; the T/C (endpoint: median survival time, dose: 12.5 mg/kg/injection, schedule: Q02DX011 (ip), vehicle: saline, higher = longer survival) is 105 % of control; the T/C (endpoint: median survival time, dose: 25.0 mg/kg/injection, schedule: Q02DX011 (ip), vehicle: saline, higher = longer survival) is 122 % of control; the T/C (endpoint: median survival time, dose: 50.0 mg/kg/injection, schedule: Q02DX011 (ip), vehicle: saline, higher = longer survival) was 89 % of control.
